According to patent publication US9084424B2, “N-benzyl heterocyclic carboxamides” (BAYER INTELLECTUAL PROPERTY GMBH, priority 2010, dated 2015):

Legend:
[1] = system: Pyrenophora teres; test: In vivo preventive test on Pyrenophora teres (barley); details: preventive spray, 500 ppm of active ingredient, evaluated 7-9 days after inoculation
Experimental: In Vivo Preventive Test on Pyrenophora teres (Barley)
Solvent: 49 parts by weight of N,N-dimethylacetamid
Emulsifier: 1 part by weight of alkylaryl polyglycol ether
To produce a suitable preparation of active compound, 1 part by weight of active compound is mixed with the stated amounts of solvent and emulsifier, and the concentrate is diluted with water to the desired concentration.
To test for preventive activity, young plants are sprayed with the preparation of active compound at the stated rate of application. One day after this treatment, the plants are inoculated with an aqueous spore suspension of Pyrenophora teres. The plants remain for 48 hours in an incubation cabinet at 22° C. and a relative atmospheric humidity of 100%. Then the plants are placed in a greenhouse at a temperature of approximately 20° C. and a relative atmospheric humidity of approximately 80%.
The test is evaluated 7-9 days after the inoculation. 0% means an efficacy which corresponds to that of the untreated control while an efficacy of 100% means that no disease is observed.

[2] = log P by HPLC on reversed-phase column (EEC Directive 79/831 Annex V.A8); type: physicochemical; details: 0.1% aqueous formic acid and acetonitrile, linear gradient 10% to 90% acetonitrile
Experimental: In table 1, the log P values were determined in accordance with EEC Directive 79/831 Annex V.A8 by HPLC (High Performance Liquid Chromatography) on a reversed-phase column (C 18), using the method described below: Temperature: 40° C.; Mobile phases: 0.1% aqueous formic acid and acetonitrile; linear gradient from 10% acetonitrile to 90% acetonitrile. Calibration was carried out using unbranched alkan-2-ones (comprising 3 to 16 carbon atoms) with known log P values (determination of the log P values by the retention times using linear interpolation between two successive alkanones). lambda-max-values were determined using UV-spectra from 200 nm to 400 nm and the peak values of the chromatographic signals.

[3] = HPLC on reversed-phase column (C 18), 40° C.
[4] = HPLC, reversed-phase C 18, 40° C.

SMILES | Efficacy [1] | logP [2, 3] | logP [2, 4]
CON(Cc1ncc(Cl)cc1Cl)C(=O)c1c(C(F)F)nn(C)c1Cl [Example 182] | 95% | 2.88 | –
Cn1nc(C(F)F)c(C(=O)NCc2ccc(Oc3ccccc3)cc2)c1Cl [Example 151] | – | 3.37 | –
CN(Cc1ccccc1Br)C(=O)c1c(C(F)F)nn(C)c1Cl [Example 104] | 78% | – | 2.90
CC(C)c1ccccc1CN(C(=O)c1c(C(F)F)nn(C)c1F)C(C)C [Example 69] | – | – | 3.70
CCc1ccccc1CN(CC#N)C(=O)c1c(C(F)F)nn(C)c1F [Example 11] | – | – | 2.68
Cn1nc(C(F)F)c(C(=O)NCc2ncc(C(F)(F)F)cc2Cl)c1Cl [Example 178] | – | 3.08 | –
Cn1nc(C(F)F)c(C(=O)N(Cc2ncc(Cl)cc2Cl)C2CCCC2)c1F [Example 183] | – | 3.85 | –
CN(Cc1ccc(Cl)cc1Cl)C(=O)c1c(C(F)F)nn(C)c1F [Example 43] | 100% | – | 3.19
Cn1nc(C(F)F)c(C(=O)N(Cc2ncc(C(F)(F)F)cc2Cl)C2CCCC2)c1F [Example 190] | – | 3.96 | –
Cn1nc(C(F)F)c(C(=O)NCc2cccc(-c3ccccc3)c2)c1Cl [Example 165] | – | 3.33 | –
Cn1nc(C(F)F)c(C(=O)NCc2ccccc2Cl)c1F [Example 25] | – | – | 2.50
CCc1ccccc1CN(C(=O)c1c(C(F)F)nn(C)c1F)C(C)C [Example 14] | – | – | 3.39
C=CCN(Cc1c(Cl)cccc1C(F)(F)F)C(=O)c1c(C(F)F)nn(C)c1F [Example 94] | 80% | – | 3.37
Cn1nc(C(F)F)c(C(=O)NCc2ccccc2Cl)c1Cl [Example 21] | – | – | 2.69
CC(C)c1ccc(Cl)cc1CN(CC(F)F)C(=O)c1c(C(F)F)nn(C)c1F [Example 80] | 100% | – | 3.81
Cn1nc(C(F)F)c(C(=O)NCc2c(F)cccc2C(F)(F)F)c1F [Example 95] | – | – | 2.69
CN(Cc1ccc(Oc2ccccc2)cc1)C(=O)c1c(C(F)F)nn(C)c1Cl [Example 155] | – | 3.48 | –
CC(C)N(Cc1ccccc1[Si](C)(C)C)C(=O)c1c(C(F)F)nn(C)c1F [Example 102] | – | – | 4.37
CC(c1c(Cl)cccc1Cl)N(C)C(=O)c1c(C(F)F)nn(C)c1F (stereo not drawn) [Example 64] | 95% | – | 3.13
Cn1nc(C(F)F)c(C(=O)N(Cc2ncc(C(F)(F)F)cc2Cl)C2CCCC2)c1Cl [Example 189] | – | 4.21 | –
CN(Cc1cc(Cl)ccn1)C(=O)c1c(C(F)F)nn(C)c1F [Example 174] | 75% | 1.84 | –
Cn1nc(C(F)F)c(C(=O)NCc2ccccc2-c2ccccc2)c1Cl [Example 164] | – | 3.39 | –
Cn1nc(C(F)F)c(C(=O)NC2(c3ccccn3)CCCC2)c1Cl [Example 171] | – | 1.30 | –
CC(C)c1ccccc1CN(CC#N)C(=O)c1c(C(F)F)nn(C)c1F [Example 67] | 90% | – | 2.94
Cn1nc(C(F)F)c(C(=O)NCc2ccc3c(c2)CCCC3)c1Cl [Example 111] | – | 3.44 | –

SMILES | Efficacy [1] | logP [2, 3] | logP [2, 4]
Cc1cccc(C)c1CN(C)C(=O)c1c(C(F)F)nn(C)c1F [Example 6] | 78% | – | 2.84
CC(C)N(Cc1c(Cl)cccc1C(F)(F)F)C(=O)c1c(C(F)F)nn(C)c1F [Example 92] | 70% | – | 3.61
Cn1nc(C(F)F)c(C(=O)NCc2ccc(C(F)(F)F)cc2)c1Cl [Example 124] | – | 2.90 | –
Cn1nc(C(F)F)c(C(=O)NC2(c3cccc(C(F)(F)F)c3)CCCC2)c1Cl [Example 109] | – | 3.80 | –
CC(c1ncc(Cl)cc1Cl)N(C(=O)c1c(C(F)F)nn(C)c1Cl)C1CCCC1 (stereo not drawn) [Example 188] | 95% | 4.67 | –
Cn1nc(C(F)F)c(C(=O)NC(C#N)c2ccccc2)c1F (racemic) [Example 3] | – | – | 2.07
Cn1nc(C(F)F)c(C(=O)NCc2ccccc2-c2ccccc2)c1F [Example 163] | – | 3.21 | –
CN(Cc1ccc(Oc2ccc(Cl)cc2)cc1)C(=O)c1c(C(F)F)nn(C)c1Cl [Example 157] | 90% | 3.96 | –
CN(Cc1cccc(Oc2ccccc2)c1)C(=O)c1c(C(F)F)nn(C)c1Cl [Example 149] | 70% | 3.46 | –
COc1ccc(CNC(=O)c2c(C(F)F)nn(C)c2F)cc1 [Example 134] | – | 2.08 | –
Cn1nc(C(F)F)c(C(=O)NCc2c(Cl)cccc2Cl)c1Cl [Example 59] | – | – | 3.89
Cn1nc(C(F)F)c(C(=O)NCc2cc(Cl)ccc2Cl)c1Cl [Example 47] | – | – | 4.39
Cn1nc(C(F)F)c(C(=O)NC(C)(C)c2cc(Cl)cc(Cl)c2)c1F [Example 114] | – | 3.59 | –
COc1ccc(CNC(=O)c2c(C(F)F)nn(C)c2F)cc1OC [Example 119] | – | 1.79 | –
CC(c1c(Cl)cccc1Cl)N(C)C(=O)c1c(C(F)F)nn(C)c1Cl (stereo not drawn) [Example 63] | – | – | 3.25
Cn1nc(C(F)F)c(C(=O)NCc2ccccc2C2CC2)c1Cl [Example 66] | – | – | 2.98
COc1ccc(C2(NC(=O)c3c(C(F)F)nn(C)c3F)CCCC2)cc1 [Example 133] | 95% | 3.06 | –
Cn1nc(C(F)F)c(C(=O)NCc2ccc(OCc3ccccc3)cc2)c1Cl [Example 160] | – | 3.37 | –
CN(Cc1c(Cl)cccc1Cl)C(=O)c1c(C(F)F)nn(C)c1F [Example 62] | 100% | – | 2.82
Cn1nc(C(F)F)c(C(=O)NCc2cccc(Oc3ccccc3)c2)c1Cl [Example 146] | – | 3.46 | –
Cn1nc(C(F)F)c(C(=O)NCc2c(F)cccc2C(F)(F)F)c1Cl [Example 96] | – | – | 2.86
CN(Cc1cc(Cl)ccc1Cl)C(=O)c1c(C(F)F)nn(C)c1F [Example 58] | – | – | 3.02
COc1ccc(CNC(=O)c2c(C(F)F)nn(C)c2Cl)cc1OC [Example 120] | – | 1.36 | –
CON(Cc1ccccc1C(C)C)C(=O)c1c(C(F)F)nn(C)c1Cl [Example 77] | – | – | 3.51
Cn1nc(C(F)F)c(C(=O)N(Cc2cc(Cl)ccc2C(F)(F)F)C2CSC2)c1Cl [Example 86] | – | – | 4.08

SMILES | Efficacy [1] | logP [2, 3] | logP [2, 4]
Cc1cccc(C)c1CN(C)C(=O)c1c(C(F)F)nn(C)c1Cl [Example 5] | 89% | – | 3.02
CN(Cc1cc(Cl)ccc1Cl)C(=O)c1c(C(F)F)nn(C)c1Cl [Example 57] | – | – | 3.23
Cn1nc(C(F)F)c(C(=O)NC2(c3ccccn3)CCCC2)c1F [Example 172] | – | 1.13 | –
Cn1nc(C(F)F)c(C(=O)NC(C)(C)c2c(F)cccc2F)c1Cl [Example 10] | – | – | 3.89
C#CCN(Cc1c(Cl)cccc1C(F)(F)F)C(=O)c1c(C(F)F)nn(C)c1F [Example 93] | 95% | – | 3.05
Cn1nc(C(F)F)c(C(=O)NCc2ccc(C(F)(F)F)cc2)c1F [Example 123] | – | 2.75 | –
CN(Cc1ccc(Cl)cc1Cl)C(=O)c1c(C(F)F)nn(C)c1Cl [Example 42] | – | – | 3.37
CN(Cc1cc(Cl)ccn1)C(=O)c1c(C(F)F)nn(C)c1Cl [Example 173] | – | 2.01 | –
Cn1nc(C(F)F)c(C(=O)N(CC#N)Cc2ccccc2[Si](C)(C)C)c1F [Example 97] | – | – | 3.52
Cn1nc(C(F)F)c(C(=O)NCc2ccc(-c3ccccc3)cc2)c1Cl [Example 168] | – | 3.35 | –
CCOc1ccc(C2(NC(=O)c3c(C(F)F)nn(C)c3Cl)CCCC2)cc1 [Example 130] | – | 3.59 | –
CC(c1ncc(Cl)cc1Cl)N(C)C(=O)c1c(C(F)F)nn(C)c1Cl (stereo not drawn) [Example 186] | – | 3.11 | –
Cn1nc(C(F)F)c(C(=O)NCc2c(Cl)cccc2Cl)c1F [Example 60] | – | – | 4.39
Cn1nc(C(F)F)c(C(=O)NCc2ccc(Cl)cc2Cl)c1Cl [Example 34] | – | – | 4.19
Cn1nc(C(F)F)c(C(=O)NC(C#N)c2ccccc2)c1Cl (racemic) [Example 4] | – | – | 2.20
COc1ccc(C2(NC(=O)c3c(C(F)F)nn(C)c3Cl)CCCC2)cc1 [Example 132] | – | 3.19 | –
Cn1nc(C(F)F)c(C(=O)NCc2ccccc2Oc2ccccc2)c1Cl [Example 143] | – | 3.46 | –
Cn1nc(C(F)F)c(C(=O)NCc2ccc(Cl)cc2)c1Cl [Example 128] | – | 2.70 | –
Cn1nc(C(F)F)c(C(=O)NC(C#N)c2cc(F)ccc2F)c1F (racemic) [Example 8] | – | – | 2.01
Cn1nc(C(F)F)c(C(=O)NC(C)(C)c2c(F)cccc2F)c1F [Example 9] | – | – | 4.19
Cn1nc(C(F)F)c(C(=O)NC2(c3cc(Cl)ccc3Cl)CC2)c1Cl [Example 48] | – | – | 4.19
Cn1nc(C(F)F)c(C(=O)NC2(c3ccc(C(F)(F)F)cc3)CCCC2)c1Cl [Example 122] | – | 3.87 | –
Cn1nc(C(F)F)c(C(=O)NC(C#N)c2cc(F)ccc2F)c1Cl (racemic) [Example 7] | – | – | 2.31
